Reference: patent US12268694B2, “Combination pharmaceutical agents as RSV inhibitors” (Enanta Pharmaceuticals, Inc., priority 2017, dated 2025)
Where two headings read alike, the source gives them in different places.

Tested on: genotype A, "Long" strain RSV
Assay: RSV-A assay: CPE protection in HEp-2 cells, ATPlite readout
Assay type: cell-based, human respiratory syncytial virus
Description: HEp-2 cells, (originally derived from tumors grown in irradiated-cortisonised weanling rats that had been injected with epidermoid carcinoma tissue from a person's larynx, but later found to be indistinguishable from HeLa cells by PCR DNA analysis), were used for the culturing of genotype A, “Long” strain RSV. Flasks were inoculated with RSV and viral stocks were collected once cytopathic effect (CPE) was greater than 90%. Viral stocks in 25% sucrose media were snap frozen using liquid nitrogen to increase viral stability. Viral stock titers were quantified by tissue culture infectious dose 50% (TCID50) using 8,000 cells per well and 3-fold viral dilutions across a 96-well plate, cultured for 4 days. Viral stock titers were also quantified by a plaque forming unit assay, as described elsewhere.
Following extensive parameter testing, the final assay is run as follows: HEp-2 cells are seeded into the inner 60 wells of a 96-well plate at 8,000 cells per well in a volume of 50 μL using Growth Media (DMEM without phenol red, 1% L-Glut, 1% Penn/Strep, 1% nonessential amino acids, 10% heat-inactivated FBS). 2-fold serial dilutions of control and test compounds are added to the wells in duplicate in a total volume of 25 μL. Viral stock is then added to the wells at a multiplicity of infection (MOI) of 0.1 in a volume of 25 μL, bringing the total volume of each well to 100 μL. The MOI is calculated using the PFU/mL, or TCID50 if unavailable. Each 96-well plate has a control column of 6 wells with cells and virus but no compound (negative control, max CPE), a column with cells but no compound or virus (positive control, minimum CPE), and a column with no cells or virus or compound (background plate/reagent control). The control wells with cells but no virus are given an additional 25 μL of growth media containing an equal quantity of sucrose as those wells receiving the viral stock in order to keep consistent in media and volume conditions. The outer wells of the plate are filled with 125 μL of moat media (DMEM, 1% Penn/Strep) to act as a thermal and evaporative moat around the test wells. Following a 5-day incubation period, the plates are read using ATPlite (50 μL added per well), which quantifies the amount of ATP (a measure of cell health) present in each well. Assay plates are read using the Envision luminometer. In parallel, cytotoxicity is examined on an additional 96-well plate treated in an identical manner, but substituting the 25 μL of viral stock for 25 μL of growth media. […] EC50 ranges are as follows: A <0.4 μM; B 0.4-0.8 μM; C >0.8 μM and CC50 ranges are as follows: A >50 μM; B 10-50 μM; C <10 μM.

[1] = human respiratory syncytial virus, HEp-2, read-out: Human RSV-A (“Long” strain) EC50
[2] = HEp-2 cells, RSV-A Long strain, ATPlite readout, read-out: Human RSV-A (“Long” strain) EC50

SMILES | EC50 [1] | EC50 [2]
Cc1cc(-n2cncn2)ccc1-c1nnc(NC2N=C(c3ccccc3)c3ccccc3NC2=O)o1 (centres unmarked) [Example 218] | > 800 nM | –
O=C1Nc2ccccc2C(c2ccccc2)=N[C@@H]1Nc1nnc(-c2ncc(C(F)(F)F)cc2N[C@@H]2CCC[C@@H]2O)o1 [Example 423] | 400 to 800 nM | –
COCc1ccn2ncc(-c3nnc(N[C@H]4N=C(c5ccccc5)c5ccccc5NC4=O)o3)c2c1 [Example 449] | > 800 nM | –
COCCCc1sc(C)nc1-c1nnc(N[C@H]2N=C(c3ccccc3)c3ccccc3NC2=O)o1 [Example 479] | > 800 nM | –
O=C1Nc2ccccc2C(c2ccccc2)=NC1Nc1nnc(-c2ccccc2-n2cccn2)o1 (centres unmarked) [Example 283] | > 800 nM | –
O=C1Nc2ccccc2C(c2ccccc2)=NC1Nc1nnc(-c2ccc(-n3ccc(C(F)(F)F)n3)cc2)o1 (centres unmarked) [Example 202] | > 800 nM | –
COc1ccc(CN2C(=O)C(C)(N)N=C(c3ccccc3)c3ccccc32)cc1 (centres unmarked) [Example 102] | > 800 nM | –
O=C1Nc2ccccc2C(c2ccccc2)=N[C@@H]1Nc1nnc(-c2ncc(C3CCCCC3)cc2N2CCOCC2)o1 [Example 313] | < 400 nM | –
O=C1Nc2ccccc2C(c2ccccc2)=NC1Nc1nnc(-c2cccnc2N2CCCC(F)(F)C2)o1 (centres unmarked) [Example 246] | > 800 nM | –
O=C1Nc2ccccc2C(c2ccccc2)=N[C@@H]1Nc1nnc(-c2ncc(C(F)(F)F)cc2N[C@@H]2CC[C@@H]2O)o1 [Example 418] | – | > 800 nM
O=C1Nc2ccccc2C(c2ccccc2)=N[C@@H]1Nc1nnc(-c2oc3cc(F)ccc3c2N2CCOCC2)o1 [Example 476] | 400 to 800 nM | –
O=C1Nc2ccccc2C(c2ccccc2)=NC1Nc1nnc(C2CCOC2)o1 (centres unmarked) [Example 215] | > 800 nM | –
O=C1Nc2ccccc2C(c2ccccc2)=N[C@@H]1Nc1nnc(-c2cn(-c3cccnc3)nc2N2CCOCC2)o1 [Example 425] | < 400 nM | –
O=C1Nc2ccccc2C(c2ccccc2)=NC1Nc1nnc(-c2ccc(N3CCOCC3)c(F)c2)o1 (centres unmarked) [Example 112] | > 800 nM | –
O=C1Nc2ccccc2C(c2ccccc2)=NC1Nc1nnc(-c2ccc(-n3cnnc3)cc2)o1 (centres unmarked) [Example 233] | > 800 nM | –
O=C1Nc2ccccc2C(c2ccccc2)=N[C@@H]1Nc1nnc(-c2ncc(C(F)(F)F)cc2N[C@H]2CC[C@H]2O)o1 [Example 417] | – | > 800 nM
COC[C@@H](C)Nc1sc(C(F)(F)F)nc1-c1nnc(N[C@H]2N=C(c3ccccc3)c3ccccc3NC2=O)o1 [Example 451] | 400 to 800 nM | –
O=C1Nc2ccccc2C(c2ccccc2)=N[C@@H]1Nc1nnc(-c2ccc(F)cc2N2CC3CCC(C2)O3)o1 [Example 288] | 400 to 800 nM | –
C[C@@H]1COCCN1c1cc(C#N)cnc1-c1nnc(N[C@H]2N=C(c3ccccc3)c3ccccc3NC2=O)o1 [Example 301] | < 400 nM | –
C[C@@H]1CN(c2cc(C#N)cnc2-c2nnc(N[C@H]3N=C(c4ccccc4)c4ccccc4NC3=O)o2)CCO1 [Example 326] | 400 to 800 nM | –
O=C1Nc2ccccc2C(c2ccccc2)=NC1Nc1nnc(-c2ccc(F)nc2N2CCOCC2)o1 (centres unmarked) [Example 150] | – | < 400 nM
O=C1Nc2ccccc2C(c2ccccc2)=NC1Nc1ccc(-c2ccccc2N2CCOCC2)nn1 (centres unmarked) [Example 378] | > 800 nM | –
COc1cnc(-c2nnc(NC3N=C(c4ccccc4)c4ccccc4NC3=O)o2)c(F)c1 (centres unmarked) [Example 185] | > 800 nM | –
O=C1Nc2ccccc2C(c2ccccc2)=N[C@@H]1Nc1nnc(-c2nc(C(F)(F)F)sc2NCC2COC2)o1 [Example 475] | 400 to 800 nM | –
O=C1Nc2ccccc2C(c2ccccc2)=N[C@@H]1Nc1nnc(-c2nc(C3CC3)ccc2N2CCOCC2)o1 [Example 318] | < 400 nM | –
CN(C)c1cc(C(F)(F)F)cnc1-c1nnc(N[C@H]2N=C(c3ccccc3)c3ccccc3NC2=O)o1 [Example 302] | > 800 nM | –
O=C1Nc2ccccc2C(c2ccccc2)=NC1Nc1nnc(-c2ccc(OC3CCOCC3)cc2)o1 (centres unmarked) [Example 220] | > 800 nM | –
CO[C@@H](C)CNc1sc(C(F)(F)F)nc1-c1nnc(N[C@H]2N=C(c3ccccc3)c3ccccc3NC2=O)o1 [Example 452] | < 400 nM | –
O=C1Nc2ccccc2C(c2ccccc2)=NC1Nc1nnc([C@@H]2CCCO2)o1 (some centres unmarked) [Example 207] | > 800 nM | –
